Test results from PubChem BioAssay AID248 (DTP/NCI, 2004).
Where “and” joins values, the source holds several entries; their conditions need not be identical. Identical values can stand only once. Inconclusive results and toxic doses are left out.

System: L1210 leukemia ip in BDF1 mice, survival T/C
Assay: NCI In Vivo Anticancer Drug Screen. Data for tumor model L1210 Leukemia (intraperitoneal) in B6D2F1 (BDF1) mice
Conditions: endpoint: mean survival time, higher = longer survival
Outline: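 In this screen, tumor-bearing mice given compound are compared to those given vehicle, and their survival values are reported as a treated-to-control quotient.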

[1] = dose: 100.0 mg/kg/injection, schedule: Q04DX002 (ip), vehicle: Klucel (hydroxypropylcellulose) (HPC)
[2] = dose: 100.0 mg/kg/injection, schedule: Q04DX003 (ip), vehicle: saline with Tween-80
[3] = dose: 200.0 mg/kg/injection, schedule: Q04DX003 (ip), vehicle: saline with Tween-80
[4] = dose: 400.0 mg/kg/injection, schedule: Q04DX003 (ip), vehicle: saline with Tween-80
[5] = dose: 50.0 mg/kg/injection, schedule: Q04DX003 (ip), vehicle: saline
[6] = dose: 100.0 mg/kg/injection, schedule: Q01DX001 (ip), vehicle: saline
[7] = dose: 100.0 mg/kg/injection, schedule: Q04DX003 (ip), vehicle: saline
[8] = dose: 200.0 mg/kg/injection, schedule: Q01DX001 (ip), vehicle: saline
[9] = dose: 200.0 mg/kg/injection, schedule: Q04DX003 (ip), vehicle: saline
[10] = dose: 100.0 mg/kg/injection, schedule: Q04DX003 (ip), vehicle: Klucel (hydroxypropylcellulose) (HPC)
[11] = dose: 200.0 mg/kg/injection, schedule: Q04DX003 (ip), vehicle: Klucel (hydroxypropylcellulose) (HPC)
[12] = dose: 400.0 mg/kg/injection, schedule: Q04DX003 (ip), vehicle: Klucel (hydroxypropylcellulose) (HPC)
[13] = dose: 100.0 mg/kg/injection, schedule: Q01DX009 (ip), vehicle: saline
[14] = dose: 200.0 mg/kg/injection, schedule: Q01DX009 (ip), vehicle: saline
[15] = dose: 400.0 mg/kg/injection, schedule: Q04DX003 (ip), vehicle: saline
[16] = dose: 50.0 mg/kg/injection, schedule: Q01DX009 (ip), vehicle: saline with Tween-80
[17] = dose: 100.0 mg/kg/injection, schedule: Q01DX009 (ip), vehicle: saline with Tween-80
[18] = dose: 200.0 mg/kg/injection, schedule: Q01DX009 (ip), vehicle: saline with Tween-80

COC(=O)c1ccccc1-n1cnc2ccccc2c1=O
T/C [1]: 101 % of control | T/C (dose: 200.0 mg/kg/injection, schedule: Q04DX002 (ip), vehicle: Klucel (hydroxypropylcellulose) (HPC)): 101 % of control | T/C (dose: 400.0 mg/kg/injection, schedule: Q04DX002 (ip), vehicle: Klucel (hydroxypropylcellulose) (HPC)): 93 % of control

Nc1ccc(Cl)cc1C(=O)c1ccccn1
T/C [2]: 100 % of control | T/C [3]: 108 % of control | T/C [4]: 97 % of control

C#CC(O)(c1ccccc1)c1cc(OC)c(OC)cc1OC (stereo not drawn)
T/C [2]: 101 % of control | T/C [3]: 97 % of control | T/C [4]: 94 % of control

C[NH-].C[NH-].[Br][Pt+2][Br]
T/C (dose: 0.62 mg/kg/injection, schedule: Q01DX009 (ip), vehicle: water): 118 % of control and 123 % of control | T/C (dose: 1.5 mg/kg/injection, schedule: Q01DX001 (ip), vehicle: other): 108 % of control | T/C (dose: 1.5 mg/kg/injection, schedule: Q01DX009 (ip), vehicle: other): 115 % of control | T/C (dose: 2.0 mg/kg/injection, schedule: Q01DX009 (ip), vehicle: other): 161 % of control | T/C (dose: 3.0 mg/kg/injection, schedule: Q01DX001 (ip), vehicle: other): 117 % of control | T/C (dose: 3.0 mg/kg/injection, schedule: Q01DX005 (ip), vehicle: saline with Tween-80): 105 % of control | T/C (dose: 3.0 mg/kg/injection, schedule: Q01DX009 (ip), vehicle: other): 153 % of control | T/C (dose: 4.5 mg/kg/injection, schedule: Q01DX009 (ip), vehicle: other): 95 % of control | T/C (dose: 5.0 mg/kg/injection, schedule: Q01DX009 (ip), vehicle: water): 98 % of control | T/C (dose: 6.0 mg/kg/injection, schedule: Q01DX001 (ip), vehicle: other): 117 % of control | T/C (dose: 6.0 mg/kg/injection, schedule: Q01DX009 (ip), vehicle: other): 98 % of control | T/C (dose: 10.0 mg/kg/injection, schedule: Q01DX009 (ip), vehicle: water): 115 % of control | T/C (dose: 25.0 mg/kg/injection, schedule: Q01DX001 (ip), vehicle: other): 124 % of control | T/C (dose: 50.0 mg/kg/injection, schedule: Q01DX001 (ip), vehicle: other): 95 % of control

O=C1C=CC(=O)N1c1ccc2c(c1)oc(=O)c1ccccc12
T/C (dose: 37.5 mg/kg/injection, schedule: Q01DX009 (ip), vehicle: saline with Tween-80): 92 % of control | T/C [5]: 96 % of control | T/C [6]: 97 % of control | T/C [7]: 96 % of control | T/C [8]: 92 % of control | T/C [9]: 97 % of control

OC(c1ccccc1)(c1ccccc1)C(O)(c1ccccc1)c1ccccc1
T/C (dose: 12.5 mg/kg/injection, schedule: Q04DX002 (ip), vehicle: Klucel (hydroxypropylcellulose) (HPC)): 94 % of control | T/C (dose: 25.0 mg/kg/injection, schedule: Q04DX002 (ip), vehicle: Klucel (hydroxypropylcellulose) (HPC)): 97 % of control and 122 % of control | T/C (dose: 50.0 mg/kg/injection, schedule: Q04DX002 (ip), vehicle: Klucel (hydroxypropylcellulose) (HPC)): 115 % of control and 91 % of control | T/C [1]: 97 % of control | T/C (dose: 100.0 mg/kg/injection, schedule: Q04DX002 (ip), vehicle: gum acacia): 92 % of control | T/C (dose: 100.0 mg/kg/injection, schedule: Q04DX002 (ip), vehicle: saline with Tween-80): 102 % of control | T/C [10]: 96 % of control | T/C (dose: 200.0 mg/kg/injection, schedule: Q04DX002 (ip), vehicle: gum acacia): 89 % of control | T/C (dose: 200.0 mg/kg/injection, schedule: Q04DX002 (ip), vehicle: saline with Tween-80): 99 % of control | T/C [11]: 88 % of control | T/C (dose: 400.0 mg/kg/injection, schedule: Q04DX002 (ip), vehicle: gum acacia): 95 % of control | T/C (dose: 400.0 mg/kg/injection, schedule: Q04DX002 (ip), vehicle: saline with Tween-80): 99 % of control | T/C [12]: 95 % of control

COc1ccccc1NC(=O)c1cc2ccccc2cc1O
T/C [13]: 109 % of control | T/C [7]: 100 % of control | T/C [14]: 104 % of control | T/C [9]: 100 % of control | T/C (dose: 400.0 mg/kg/injection, schedule: Q01DX009 (ip), vehicle: saline): 100 % of control | T/C [15]: 98 % of control

CCC(C)(CC)OC(N)=O
T/C (dose: 12.5 mg/kg/injection, schedule: Q01DX009 (ip), vehicle: saline with Tween-80): 100 % of control | T/C (dose: 25.0 mg/kg/injection, schedule: Q01DX009 (ip), vehicle: saline with Tween-80): 102 % of control | T/C (dose: 25.0 mg/kg/injection, schedule: Q04DX003 (ip), vehicle: saline): 100 % of control | T/C [16]: 94 % of control | T/C [5]: 100 % of control | T/C [17]: 105 % of control | T/C [7]: 102 % of control | T/C [18]: 93 % of control | T/C [9]: 96 % of control

O=S(=O)(Nc1ccc(NS(=O)(=O)c2ccccc2)cc1)c1ccccc1
T/C (dose: 100.0 mg/kg/injection, schedule: Q01DX009 (ip), vehicle: saline sonified): 97 % of control | T/C [10]: 93 % of control | T/C (dose: 200.0 mg/kg/injection, schedule: Q01DX009 (ip), vehicle: saline sonified): 104 % of control | T/C [11]: 98 % of control | T/C (dose: 400.0 mg/kg/injection, schedule: Q01DX009 (ip), vehicle: saline sonified): 98 % of control | T/C [12]: 90 % of control

O=C(NC(c1ccccc1)C(O)c1ccccc1)c1ccc([N+](=O)[O-])cc1 (stereo not drawn)
T/C (dose: 50.0 mg/kg/injection, schedule: Q01DX001 (ip), vehicle: carboxymethylcellulose (CMC)): 96 % of control | T/C (dose: 100.0 mg/kg/injection, schedule: Q01DX001 (ip), vehicle: carboxymethylcellulose (CMC)): 93 % of control | T/C (dose: 100.0 mg/kg/injection, schedule: Q04DX003 (ip), vehicle: acetone): 109 % of control | T/C (dose: 200.0 mg/kg/injection, schedule: Q01DX001 (ip), vehicle: carboxymethylcellulose (CMC)): 93 % of control | T/C (dose: 200.0 mg/kg/injection, schedule: Q04DX003 (ip), vehicle: acetone): 96 % of control | T/C (dose: 400.0 mg/kg/injection, schedule: Q01DX001 (ip), vehicle: carboxymethylcellulose (CMC)): 87 % of control | T/C (dose: 400.0 mg/kg/injection, schedule: Q04DX003 (ip), vehicle: acetone): 103 % of control

CNS(C)(=O)=O
T/C [6]: 108 % of control | T/C [7]: 101 % of control | T/C [8]: 106 % of control | T/C [9]: 104 % of control | T/C (dose: 400.0 mg/kg/injection, schedule: Q01DX001 (ip), vehicle: saline): 95 % of control | T/C [15]: 106 % of control

OCC(c1ccccc1)[P+](c1ccccc1)(c1ccccc1)c1ccccc1 (stereo not drawn)
T/C (dose: 5.0 mg/kg/injection, schedule: Q01DX001 (ip), vehicle: saline): 94 % of control | T/C (dose: 10.0 mg/kg/injection, schedule: Q01DX001 (ip), vehicle: saline): 97 % of control | T/C (dose: 20.0 mg/kg/injection, schedule: Q01DX001 (ip), vehicle: saline): 103 % of control | T/C (dose: 40.0 mg/kg/injection, schedule: Q01DX001 (ip), vehicle: saline): 97 % of control | T/C (dose: 80.0 mg/kg/injection, schedule: Q01DX001 (ip), vehicle: saline): 97 % of control

Nc1ccc(N=Nc2ccc(OCCN(CCO)CCO)cc2)c(N)n1
T/C [6]: 93 % of control | T/C [8]: 98 % of control

Nc1ccc(CCCCc2ccccc2)c(Cl)c1
T/C (dose: 75.0 mg/kg/injection, schedule: Q01DX001 (ip), vehicle: saline): 90 % of control | T/C (dose: 150.0 mg/kg/injection, schedule: Q01DX001 (ip), vehicle: saline): 96 % of control

CCN(CC)CCOB(OCCN(CC)CC)OCCN(CC)CC
T/C (dose: 50.0 mg/kg/injection, schedule: Q01DX009 (ip), vehicle: saline): 95 % of control and 101 % of control | T/C [5]: 96 % of control | T/C [13]: 101 % of control and 110 % of control | T/C (dose: 100.0 mg/kg/injection, schedule: Q04DX002 (ip), vehicle: saline): 101 % of control and 106 % of control | T/C [7]: 96 % of control | T/C [14]: 97 % of control and 103 % of control | T/C (dose: 200.0 mg/kg/injection, schedule: Q04DX002 (ip), vehicle: saline): 101 % of control and 103 % of control | T/C [9]: 100 % of control | T/C (dose: 400.0 mg/kg/injection, schedule: Q04DX002 (ip), vehicle: saline): 95 % of control

COc1cc(/C=N/O)ccc1O
T/C [16]: 97 % of control and 105 % of control | T/C [17]: 97 % of control and 102 % of control | T/C [2]: 96 % of control | T/C [18]: 107 % of control and 112 % of control | T/C [3]: 87 % of control | T/C [4]: 91 % of control

COc1ccc(C(C(N)=O)N2CCCC2)cc1 (stereo not drawn)
T/C [2]: 102 % of control | T/C [3]: 96 % of control | T/C [4]: 96 % of control
